Source: patent publication US20100249238A1, “PHARMACEUTICAL COMPOSITIONS COMPRISING SEMICARBAZONES AND THIOSEMICARBAZONES AND METHOD FOR TREATING INFLAMMATORY, PAINFUL AND FEBRILE CONDITIONS AND PREVENTING SIGNS AND SYMPTOMS OF INFLAMMATION” (priority 2007, published 2010)
Like-named read-outs stand apart in the source and are kept apart here. Marks after values point to notes of the source that are not given here.

Experiments:
[1] = tested on: nociceptive response induced by formaldehyde; conditions: compared with first phase; Blackburn-Munro et al., Eur. J. Pharmacol. 445, 231, 2002; cited from earlier work
[2] = tested on: mechanical allodynia induced by carrageenan; assay: mechanical allodynia induced by carrageenan in rats (nylon filament); assay type: in vivo; conditions: 50 mg/kg i.p. -30 min, 100 or 200 mg/kg oral -60 min
Experimental: (§1) In the model of thermal allodynia, the latency for paw removal after application of a thermal stimulus is assessed in the Hargreaves apparatus (model 7370, Ugo Basile, Italy). In the model of mechanical allodynia, the frequency of paw withdrawal to a series of ten touches with a nylon filament to the plantar surface of the right hind paw is determined. Dimethyl sulfoxide (DMSO) 25%+Tween 80 10% in saline was the vehicle used for intraperitoneal administration and carboxymethylcellulose 0.5%, a pharmaceutically acceptable excipient, was used for oral administration. Thirty or 60 min after intraperitoneal or oral administration, respectively, carrageenan (1%, 50 μl, suspended in saline) was injected into the plantar surface of the right hindpaw and the latency for paw removal after application of a thermal stimulus or the frequency of paw withdrawal to the mechanical stimulus was evaluated as described.

[3] = tested on: paw edema induced by carrageenan; assay: paw edema induced by carrageenan in rats; assay type: in vivo; conditions: 50 mg/kg i.p. -30 min or 200 mg/kg oral -60 min
Experimental: The paw edema was assessed using a pletismometer (model 7140, Ugo Basile, Italy). The basal paw volume was determined before any treatment and the edema was induced by intraplantar injection of carrageenan into the right hindpaw (1%, 50 μl, suspended in saline). Dimethyl sulfoxide (DMSO) 25%+Tween 80 10% in saline was the vehicle used for intraperitoneal administration and carboxymethylcellulose 0.5%, a pharmaceutically acceptable excipient, was used for oral administration. Thirty or 60 min after intraperitoneal or oral administration, respectively, carrageenan (1%, 50 μl, suspended in saline) was injected and the paw edema was evaluated as described.

[4] = tested on: nociceptive response induced by heat; assay: nociceptive response induced by heat in the hot plate model; assay type: in vivo; conditions: mice; 54° C.; 10, 25 or 50 mg/kg i.p. -30 min; 100 or 200 mg/kg oral -60 min
Experimental: In this model, the mice were exposed to a heat metal surface (54° C.) and the latency for licking the paws or jumping off the plate was determined. Dimethyl sulfoxide (DMSO) 25%+Tween 80 10% in saline was the vehicle used for intraperitoneal administration and carboxymethylcellulose 0.5%, a pharmaceutically acceptable excipient, was used for oral administration. Thirty or 60 min after intraperitoneal or oral administration, respectively, the mice were exposed to the hot plate and the latency for displaying the nociceptive behavior was determined as described.

[5] = tested on: thermal allodynia induced by carrageenan; assay: thermal allodynia induced by carrageenan in rats (Hargreaves apparatus); assay type: in vivo; conditions: 50 mg/kg i.p. -30 min, 100 or 200 mg/kg oral -60 min
Experimental: as §1

[6] = oral subacute toxicity, OECD 407 repeated dose 28 days, body weight; assay type: in vivo, rats; conditions: for Final body mass / Initial body mass: BS, mean ± sem
Experimental: (§2) Toxicological studies were based on established protocols (OECD Test Guidelines) internationally recognized as a reference standard tool for chemical tests.
The OECD 407 guideline—Repeated-dose Procedure for Assessing Oral Subacute Toxicity (OECD, 1995) was used. The test substance was administered orally daily (from 11:00 am to 1:00 pm) during 28 days. The animals were observed daily during the whole period. Doses of 100, 300, 500 mg/kg for BS were used.
(§3) Laboratory analyses for acute (macroscopic and microscopic analyses) and subacute (macroscopic and microscopic analyses, biochemical and hematologic analysis) toxicity tests were carried out.

[7] = tested on: nociceptive response induced by formaldehyde; assay: nociceptive response induced by formaldehyde in mice; assay type: in vivo
Experimental: In the nociceptive response induced by formaldehyde (0.92%, 20 μL), the inflammatory stimulus is injected subcutaneously into the dorsum of the right hind paw of male Swiss mice. The time the animal spent licking its injected paw was determined from 0 to 5 min (first phase) and from 15 to 30 min (second phase) after formaldehyde injection. Dimethyl sulfoxide (DMSO) 25%+Tween 80 10% in saline was the vehicle used for intraperitoneal administration and carboxymethylcellulose 0.5%, a pharmaceutically acceptable excipient, was used for oral administration. Thirty or 60 min after intraperitoneal or oral administration, respectively, formaldehyde was injected and the nociceptive behavior evaluated as described.

[8] = tested on: febrile response induced by endotoxin of E. coli; assay: febrile response induced by bacterial endotoxin in rats; assay type: in vivo; conditions: 200 mg/kg oral -60 min
Experimental: In this model, endotoxin of E. coli (50 μg/kg) is injected intravenously in rats and the colonic temperature is determined during 6 h.
Carboxymethylcellulose 0.5%, a pharmaceutically acceptable excipient, was used for oral administration. BS (200 mg/kg, oral, −60 min) inhibited the febrile response induced by endotoxin.

[9] = tested on: fibrovascular tissue formation induced by cotton; assay: fibrovascular tissue formation induced by subcutaneous cotton implant; assay type: in vivo, mice; conditions: 200 mg/kg per day, per os, 7 days; cotton pellet
Experimental: In the model of fibrovascular tissue formation, a cotton pellet (10 mg) is subcutaneously implanted in the back of mice. After seven days, the mice are euthanized and the cotton pellet involved plus the surrounding fibrovascular tissue is removed and its mass determined. Carboxymethylcellulose 0.5%, a pharmaceutically acceptable excipient, was used for oral administration. BS (200 mg/kg·day, oral) was administered during seven days. Twenty-four hours after the last administration, the animals were euthanised and the mass of the cotton pellet plus the surrounding fibrovascular tissue was determined as described.

motor activity = motor activity of mice in a rotarod; assay type: in vivo; conditions: Swiss male mice; 10, 25 or 50 mg/kg intraperitoneal (30 min) or 100 or 200 mg/kg oral (60 min)
Experimental: The effect of BS on motor activity of Swiss male mice (20-30 g) was evaluated in order to investigate whether inhibition of nociceptive behavior in animals treated with BS would be a result of a central depressive effect. Their motor activity was evaluated in a rotarod. A day before the experiment, the mice were trained in the apparatus. During the experiment, they were put in a rotarod (14 rpm) and the time they stayed in the apparatus was determined. One minute was the cut-off time. After basal measurements, the animals were treated with BS (10, 25 or 50 mg/kg, intraperitoneal or 100 or 200 mg/kg, oral). Dimethyl sulfoxide (DMSO) 25%+Tween 80 10% in saline was the vehicle used for intraperitoneal administration and carboxymethylcellulose 0.5%, a pharmaceutically acceptable excipient, was used for oral administration. Thirty or 60 min after intraperitoneal or oral administration, respectively, the animals were evaluated again in the rotarod apparatus.

rats = assay: oral acute toxicity, OECD 420 fixed-dose procedure; assay type: in vivo
Experimental: as §2
Only one dose of substances (300 mg/kg or 2000 mg/kg) was administered orally in rats. A careful observation of the rats was made 30 minutes later and repeated hourly up to 12 h. […] After that, the animals were euthanised and submitted to macroscopic and microscopic necropsy.
as §3

[10] = tested on: cell migration induced by carrageenan; assay: cell migration induced by intraperitoneal injection of carrageenan in rats; assay type: in vivo; conditions: 200 mg/kg oral -60 min
Experimental: In this model, carrageenan (500 μg, 1 ml, suspended in saline) is injected into the peritoneal cavity of rats. After three hours, the animals are euthanized and 10 ml phosphate buffer are injected into the peritoneal cavity. The peritoneal lavage is removed and the centrifuged. The supernatant is removed and the pellet is suspended in a 2 ml of phosphate buffer. An aliquot of 20 μl is added to a 400 μl Turk's solution. The number of cells is determined by microscopy.
Carboxymethylcellulose 0.5%, a pharmaceutically acceptable excipient, was used for oral administration. BS (200 mg/kg, oral, −60 min) inhibited cell migration induced by carrageenan.

[11] = females, Satellite group, n = 5

Structure (SMILES): O=C1NC(=O)C(c2ccccc2)(c2ccccc2)N1 [phenyloin]
- second phase of the nociceptive response induced by formaldehyde [1]: inhibit more effectively the second phase

Structure (SMILES): NC(=O)NN=Cc1ccccc1 [BS, benzaldehyde semicarbazone]
- mechanical allodynia induced by carrageenan [2]: inhibited
- paw edema induced by carrageenan [3]: inhibited
- antinociceptive effect in the hot plate model [4]: did not induce an antinociceptive effect
- thermal allodynia induced by carrageenan [5]: inhibited
- Final body mass [6, 11]: 197.27 ± 14.44^AB
- Initial body mass [6, 11]: 198.10 ± 15.06^A
- Final body mass ([6]; females, dose 100, 28 days, n = 5): 230.30 ± 15.42^A
- Initial body mass ([6]; females, dose 100, n = 5): 207.60 ± 12.62^A
- Final body mass ([6]; females, dose 300, 28 days, n = 5): 208.38 ± 24.28^AB
- Initial body mass ([6]; females, dose 300, n = 5): 192.30 ± 13.34^A
- Final body mass ([6]; females, dose 500, 28 days, n = 5): 170.00 ± 17.22^B
- Initial body mass ([6]; females, dose 500, n = 5): 196.60 ± 8.20^A
- Final body mass ([6]; males, Satellite group, death of an animal during treatment): 222.57 ± 29.34^B*
- Initial body mass ([6]; males, Satellite group, n = 5): 197.00 ± 4.51^A
- Final body mass ([6]; males, dose 100, 28 days, n = 5): 340.20 ± 50.91^A
- Initial body mass ([6]; males, dose 100, n = 5): 240.87 ± 20.07^A
- Final body mass ([6]; males, dose 300, 28 days, n = 5): 258.53 ± 25.76^B
- Initial body mass ([6]; males, dose 300, n = 5): 192.50 ± 8.32^A
- Final body mass ([6]; males, dose 500, 28 days, n = 5): 240.00 ± 46.65^B
- Initial body mass ([6]; males, dose 500, n = 5): 225.30 ± 34.72^A
- body weight gain ([6]; rats, higher doses, oral daily 28 days): reduced body weight gain
- first phase of the nociceptive response induced by formaldehyde ([7]; 50 mg/kg intraperitoneal, only this dose, 0 to 5 min): inhibited
- second phase of the nociceptive response induced by formaldehyde ([7]; 10, 25 or 50 mg/kg i.p. or 100 or 200 mg/kg oral, 15 to 30 min): markedly inhibited
- febrile response induced by endotoxin [8]: inhibited
- fibrovascular tissue formation [9]: inhibited
- motor activity (time stayed in the rotarod) (motor activity): did not alter the motor activity
- Observed signs: general activity score (normal 4) (rats; 300 mg/kg, 30' - 9 h): General activity (3),
- Observed signs: grooming score (normal 0) (rats; 300 mg/kg, 30' - 9 h): grooming (1)
- Observed signs (rats; 300 mg/kg, 9 h - 14th day): No toxicity signs
- Observed signs: ataxia score (normal 0) (rats; 2000 mg/kg, 30' - 12 h): 4
- Observed signs: cage corner score (normal 0) (rats; 2000 mg/kg, 30' - 12 h): 1
- Observed signs: piloerection score (normal 0) (rats; 2000 mg/kg, 30' - 12 h): piloerection (1),
- Observed signs: prostration score (normal 0) (rats; 2000 mg/kg, 30' - 12 h): prostration (3)
- Observed signs (rats; 2000 mg/kg, from the 2nd day): No toxicity signs
- category in the Globally Harmonized System for the Classification and Labeling of Chemicals (rats; from a death at the highest dose (2.000 mg/kg) in the acute toxicity test): 5
- signs in the acute toxicity test (rats; rats, 300 mg/kg oral single dose, reversible after few hours): reduction of motor activity and grooming
- reversibility of signs of toxicity (rats; rats, 2000 mg/kg oral single dose): second day
- T/M = number of rats treated/number of deaths (rats; single oral dose 300 mg/kg): 5/0
- T/M = number of rats treated/number of deaths (rats; single oral dose 2000 mg/kg): 5/1*
- cell migration induced by carrageenan [10]: inhibited

Structure (SMILES): NC(=O)N1c2ccccc2C=Cc2ccccc21 [carbamazepine]
- second phase of the nociceptive response induced by formaldehyde [1]: inhibit more effectively the second phase

Structure (SMILES): Nc1nnc(-c2cccc(Cl)c2Cl)c(N)n1 [lamotrigine]
- second phase of the nociceptive response induced by formaldehyde [1]: inhibit more effectively the second phase
